Measurements from patent US20120178738A1, “DIBENZO [B,F] [1,4]OXAZAPINE COMPOUNDS” (ARYX THERAPEUTICS, INC., priority 2007, published 2012).

What was measured:
[1] = test system: catalepsy in mice; test: Catalepsy mouse model; assay type: in vivo; details: highest dose 30 mg/kg
Description: A catalepsy mouse model was used to investigate a potential side effect of antipsychotic agents.
The catalepsy methodology used herein has been adapted from Tada, M. et al. ((2004). Psychopharmacol., 176, 94-100) as well as Wang et al. ((2000). J. Neurosci., 20, 8305-8314).
The animals (Swiss Webster, female, about 20 g; Charles River) were administered compounds of the invention (1 μg/kg-30 mg/kg ip). Twenty seven minutes after test compound injection, the mice's forepaws were placed on a horizontal steel bar (diameter 0.2 cm), elevated 3-5 cm above the tabletop and the time taken for the animals to remove both paws was recorded for up to 2 min.

[2] = test system: locomotor activity in rats; test: Spontaneous locomotor activity (open field); assay type: in vivo; details: clozapine comparator, dose not given
Description: One of the common side effects of many antipsychotic drugs is sedation. It has been shown that agents that have sedative actions in man have the same effect in animals. The purpose of these studies was to evaluate the effect of test compounds on the locomotor activity in rats, which is used to assess the sedative properties of antipsychotic compounds.
The animals (male Sprague Dawley rats, about 300-450 g; Charles River) were assessed for ambulation for 30 minutes before and for 30 min after vehicle or test compounds. […] Locomotor activity is quantified by the number of photobeams crossed by the animal over several 3×10 min intervals.

CN1CCN(C2=Nc3cc(Cl)ccc3Nc3ccccc32)CC1 [clozapine, reference compound]
catalepsy [1]: induced catalepsy | locomotor activity in rat (open field) [2]: trend toward sedation
